Laboratory results reported in patent publication US7772190B2, “Didepsipeptide-based endoparasiticides, new didepsipeptides and process for preparing the same” (Bayer Animal Health GmbH, priority 1995, dated 2010).

Key:
Haemonchus contortus = test: In vivo nematode test Haemonchus contortus/sheep; conditions: experimentally infected sheep; orally and/or intravenously as pure active compound; complete cessation of oviposition (worm eggs in faeces) after treatment
Experimental: Haemonchus contortus/Sheep
Sheep experimentally infected with Haemonchus contortus were treated after expiry of the prepatency time of the parasite. The active compounds were administered orally and/or intravenously as pure active compound.
(§1) The degree of effectiveness is determined by quantitatively counting the worm eggs excreted with the faeces before and after treatment.
(§2) Complete cessation of oviposition after treatment means that the worms have been expelled or are so damaged that they no longer produce eggs (effective dose).
Active compounds tested and effective doses can be seen from the following tables.

[1] = test system: Trichostrongylus colubriformis; test: In vivo nematode test Trichostrongylus colubriformis/sheep; conditions: experimentally infected sheep; orally and/or intravenously as pure active compound; complete cessation of oviposition (worm eggs in faeces) after treatment
Experimental: Trichostrongylus colubriformis/Sheep
Sheep experimentally infected with Trichostrongylus colubriformis were treated after expiry of the prepatency time of the parasite. The active compounds were administered orally and/or intravenously as pure active compound.
as §1, §2
Active compounds tested and effective doses can be seen from the following table.

| SMILES | Effective dose (Haemonchus contortus) [mg/kg] | Effective dose [1] [mg/kg] |
| --- | --- | --- |
| COC(=O)C1CCCCN1C(=O)C(C)OC(=O)C(C)N(C)C(=O)N(C)C(=O)N(C)C [Example 8, N-methyl-N-trimethylallophanoyl-L-alanyl-D-lactyl-L-homoproline Methyl Ester] | 5 |  |
| COC(=O)C(C)OC(=O)C(C)N(C)C(=O)N(C)C(=O)N(C)C [Example 2, Methyl N-methyl-N-trimethylallophanoyl-L-alanyl-D-lactate] | 5 | 5 |
